According to US5726195A, “Aminoacyl adenylate mimics as novel antimicrobial and antiparasitic agents” (Cubist Pharmaceuticals, Inc., priority 1996, dated 1998):
Values after ≈ are worked out from the molar mass of the structure shown.

Assays:
[1] = tested on: multidrug resistant Streptococcus pyogenes (#OTTO 209); assay: Mouse protection test against multidrug resistant Streptococcus pyogenes; type: in vivo, Streptococcus pyogenes; female CD-1 mice; details: 10 mg/kg sc (positive control), repeated at 4 hours, 7 days
Description: (§1) The mouse protection test is an industry standard for measuring the efficacy of a test compound in vivo [for examples of this model see J. J. Clement, et al., Antimicrobial Agents and Chemotherapy, 38 (5), 1071-1078, (1994)]. As exemplified below, this test was used to show the in vivo efficacy of the compounds of the present invention against bacteria.
The in vivo activity of compound X against multidrug resistant bacteria was established by infecting female CD-1 mice (Charles River Lab, Massachusettes) weighing 20-24 g intraperitoneally with multidrug resistant Streptococcus pyogenes inoculum. The inoculum was prepared from multidrug resistant Streptococcus pyogenes (resistant to erythromycin, tetracycline, and chloramphenicol, #OTTO 209 obtained from Dr. Pentti Huovinen, National Public Health Institute, Finland) which was cultured in brain heart infusion broth (Baltimore Biological Laboratories, Maryland) at 37° C. for 2 hr, and then 0.1 ml of the culture was diluted with the medium to 1.0 ml for reading its OD at 600 nm (0.12). The turbidity of a 0.5 McFarland standard is equivalent to OD600 0.1, or 10^8 cfu/ml. Then, 4×10^8 cfu of the bacteria (333 μl was added to 20 ml of phosphate buffered saline (Sigma P-0261 ) containing 10 % hog gastric mucin (Sigma M-2378). All animals were injected with 0.5 ml of the inoculum, equivalent to 10^7 cfu/mouse which is the dose causing ~100% death of the animals without treatment.
Compound X (60 mg) was dissolved in 6.0 ml of 0.05M Tris.HCl (pH 8.8) to give a solution of 10 mg/ml. This solution was serially diluted two times with 0.05M Tris.HCl by 5-fold (1.0 ml to 5.0 ml) to give 2 and 0.4 mg/ml solutions. The known antibiotic vancomycin HCl (Sigma V-2002, in normal saline, 1 mg/ml, pH 6.0-7.0) was used as a positive control. All the solutions were filtered with 0.2 μm Nalgene syringe filter. Immediately after the bacterial inoculation, group 1 animals were subcutaneously (sc) injected with 0.05M Tris.HCl (no antibiotic) and groups 2 to 4 were given compound X sc at 4, 20 and 100 mg/kg, respectively. Group 5 animals received vancomycin sc at 10 mg/kg. These injections were repeated once at 4 hours after the inoculation for the respective groups. The injection volume at each time was 10 ml per kilogram of body weight. The 50% protective dose (PD50) is calculated on the basis of the number of mice surviving 7 days after inoculation.

[2] = molecular target: E. Coli. IleRS (isoleucyl-tRNA synthetase) (Escherichia coli, UniProt P00956); assay: Inhibition of isoleucyl-tRNA synthetase (aminoacylation of tRNA with [3H]isoleucine); type: biochemical; details: E. coli enzyme; irreversible inhibitors: values are 50% of the active enzyme concentration; read-out: IC50 E.Coli. IleRS
Protocol: The extent of aminoacylation of tRNA with isoleucine catalyzed by isoleucyl-tRNA synthetase enzyme was measured by monitoring the incorporation of [3H] isoleucine into trichloroacetic acid-precipitable tRNA in the presence of a compound of Formula I, as compared with activity in the absence of inhibitor. The isoleucyl-tRNA synthetase enzymes are well known in the prior art and can be obtained and purified by known methods (for example see: D. Kern et at., Biochimie, 61, 1257-1272 (1979) and J. Gilbart et al., Antimicrobial Agents and Chemotherapy, 37 (1), 32-38 (1993)).
Isoleucyl-tRNA synthetase enzyme (0.08-2.0 nM, preferably, 0.4 nM) was first pre-incubated at 25° C. with 0.05 mg/ml bovine serum albumin, 10 mM DTT, 2.5% dimethyl sulfoxide, with or without a compound of Formula I, for 20 minutes. At this point a substrate solution (a solution containing the following: ATP, [^3 H]isoleucine, tRNA, HEPES, magnesium chloride, and potassium chloride) was added to give a final concentration of 0.0286 mg/ml bovine serum albumin, 5.7 mM DTT, 4 mM ATP, 5-20 μM [^3 H] isoleucine (1-15 Ci/mmol), 90 μM crude tRNA or 2 μM isoleucine specific tRNA, 1.4% dimethyl sulfoxide, 30 mM HEPES (pH 7.5), 10 mM magnesium chloride, and 50 mM potassium chloride and incubated at 25° C. Aliquots were removed at selected times (e.g. 5, 10, 20 minutes) and applied to 3MM filter paper discs (Whatman) and then dropped into 5% (wt/vol) trichloroacetic acid for >5 minutes. Filters were washed for three 10-minute periods in 5% trichloroacetic acid, rinsed in 95% ethanol and diethyl ether, and radioactivity was measured with Betafluor™ (National Diagnostics) by liquid scintillation counting.
Inhibitor activity is reported in Table II as an IC50 value (inhibitor concentration causing 50% inhibition of enzyme activity) per a known amount of active enzyme. In the case of irreversible inhibitors (1:1 stoichiometry) these values are 50% of the active enzyme concentration. The IC50 (in nM, E. coli) values of representative compounds of the present invention are listed in the second column of Table II.

[3] = tested on: S. epidermidis ATCC 33501; assay: Whole cell antimicrobial screen, MIC; type: cell-based; details: Staphylococcus epidermidis, ATCC33501
Protocol: (§2) Compounds were tested for antimicrobial activity against a panel of organisms according to standard procedures described by the National Committee for Clinical Laboratory Standards (NCCLS document M7-A3, Vol. 13, No. 25, 1993/NCCLS document M27-P, Vol. 12, No. 25, 1992). Compounds were dissolved in 100% dimethyl sulfoxide and were diluted to the final reaction concentration (0.1 μg/mL-500 μg/mL) in microbial growth media. In al cases the final concentration of dimethyl sulfoxide incubated with cells is less than or equal to 1%. For minimum inhibitory concentration (MIC) calculations, 2-fold dilutions of compounds were added to wells of a microtiter plate containing 5×10^4 bacteria or fungal cells in a final volume of 100 lambda of an appropriate media (Mueller-Hinton Broth; Haemophilus Test Media; Mueller-Hinton Broth+5% Sheep Blood; or […]). Plates were incubated overnight at an appropriate temperature (30° C.-37° C.) and optical densities (measure of cell growth) were measured using a commercial plate reader. The MIC value is defined as the lowest compound concentration inhibiting growth of the test organism.

S. pyogenes ATCC 8668 = assay: Whole cell antimicrobial screen, MIC; type: cell-based; details: Streptococcus pyogenes, ATCC8668
Protocol: as §2

S. aureus ATCC 6538P = assay: Whole cell antimicrobial screen, MIC; type: cell-based; details: Staphylococcus aureus, ATCC6538P
Protocol: as §2

C. albicans ATCC 10231 = assay: Whole cell antimicrobial screen, MIC; type: cell-based; details: Candida albicans, ATCC10231
Protocol: as §2

E. faecalis ATCC 33011 = assay: Whole cell antimicrobial screen, MIC; type: cell-based; details: Enterococcus faecalis, ATCC33011
Protocol: as §2

E. faecium ATCC 6569 = assay: Whole cell antimicrobial screen, MIC; type: cell-based; details: Enterococcus faecium, ATCC6569
Protocol: as §2

S. aureus ATCC 14154 = assay: Whole cell antimicrobial screen, MIC; type: cell-based; details: Staphylococcus aureus, ATCC14154
Protocol: as §2

[4] = tested on: S. saprophyticus ATCC 35552; assay: Whole cell antimicrobial screen, MIC; type: cell-based; details: Staphylococcus saprophyticus, ATCC35552
Protocol: as §2

B. subtilis ATCC 6633 = assay: Whole cell antimicrobial screen, MIC; type: cell-based; details: Bacillus subtilis, ATCC6633
Protocol: as §2

K. pneumonia ATCC 4352 = assay: Whole cell antimicrobial screen, MIC; type: cell-based; details: Klebsiella pneumoniae, ATCC4352
Protocol: as §2

[5] = tested on: Streptococcus pyogenes (ATCC 8668); assay: Mouse protection test against wild type Streptococcus pyogenes; type: in vivo, Streptococcus pyogenes; female CD-1 mice; details: 10 mg/kg sc (positive control), repeated at 4 hours, 7 days
Description: as §1
The in vivo antibacterial activity of compound X was established by infecting female CD-1 mice (Charles River Lab, Massachusettes) weighing 20-24 g intraperitoneally with Streptococcus pyogenes inoculum. The inoculum was prepared from Streptococcus pyogenes (ATCC 8668) which was cultured in brain heart infusion broth (Baltimore Biological Laboratories,Maryland) at 37° C. for 18 hr, and then 0.1 ml of the overnight culture was diluted with the medium to 5.0 ml for reading its OD at 600 nm (0.017). The turbidity of a 0.5 McFarland standard is equivalent to OD600 0.1, or 10^8 cfu/ml. Then, 8×10^5 cfu of the bacteria (940 μl of 1:1000 overnight culture) was added to 20 ml of phosphate buffered saline (Sigma P-0261 ) containing 5% hog gastric mucin (Sigma M-2378). All animals were injected with 0.5 ml of the inoculum, equivalent to 2×10^4 cfu/mouse which is the dose causing ~100% death of the animals without treatment.
Compound X (50 mg) was dissolved in 5.0 ml of 0.05M Tris.HCl (pH 8.8) to give a solution of 10 mg/ml. This solution was serially diluted with 0.05 M Tris.HCl by 5-fold (1.0 ml to 5.0 ml) to give 2, 0.4 and 0.08 mg/ml solutions. The known antibiotic erythromycin (Sigma E-6376, in phosphate buffered saline, 1 mg/ml, pH 7.0) was used as a positive control. All the solutions were filtered with 0.2 μm Nalgene syringe filter. Immediately after the bacterial inoculation, group 1 animals were subcutaneously (sc) injected with 0.05M Tris.HCl (no antibiotic) and groups 2 to 5 were given compound X sc at 0.8, 4, 20, and 100 mg/kg, respectively. Group 6 animals received erythromycin sc at 10 mg/kg. These injections were repeated once at 4 hours after the inoculation for the respective groups. The injection volume at each time was 10 ml per kilogram of body weight. The 50% protective dose (PD50) is calculated on the basis of the number of mice surviving 7 days after inoculation.

Sequence of E. Coli. IleRS (isoleucyl-tRNA synthetase) (P00956 whole entry): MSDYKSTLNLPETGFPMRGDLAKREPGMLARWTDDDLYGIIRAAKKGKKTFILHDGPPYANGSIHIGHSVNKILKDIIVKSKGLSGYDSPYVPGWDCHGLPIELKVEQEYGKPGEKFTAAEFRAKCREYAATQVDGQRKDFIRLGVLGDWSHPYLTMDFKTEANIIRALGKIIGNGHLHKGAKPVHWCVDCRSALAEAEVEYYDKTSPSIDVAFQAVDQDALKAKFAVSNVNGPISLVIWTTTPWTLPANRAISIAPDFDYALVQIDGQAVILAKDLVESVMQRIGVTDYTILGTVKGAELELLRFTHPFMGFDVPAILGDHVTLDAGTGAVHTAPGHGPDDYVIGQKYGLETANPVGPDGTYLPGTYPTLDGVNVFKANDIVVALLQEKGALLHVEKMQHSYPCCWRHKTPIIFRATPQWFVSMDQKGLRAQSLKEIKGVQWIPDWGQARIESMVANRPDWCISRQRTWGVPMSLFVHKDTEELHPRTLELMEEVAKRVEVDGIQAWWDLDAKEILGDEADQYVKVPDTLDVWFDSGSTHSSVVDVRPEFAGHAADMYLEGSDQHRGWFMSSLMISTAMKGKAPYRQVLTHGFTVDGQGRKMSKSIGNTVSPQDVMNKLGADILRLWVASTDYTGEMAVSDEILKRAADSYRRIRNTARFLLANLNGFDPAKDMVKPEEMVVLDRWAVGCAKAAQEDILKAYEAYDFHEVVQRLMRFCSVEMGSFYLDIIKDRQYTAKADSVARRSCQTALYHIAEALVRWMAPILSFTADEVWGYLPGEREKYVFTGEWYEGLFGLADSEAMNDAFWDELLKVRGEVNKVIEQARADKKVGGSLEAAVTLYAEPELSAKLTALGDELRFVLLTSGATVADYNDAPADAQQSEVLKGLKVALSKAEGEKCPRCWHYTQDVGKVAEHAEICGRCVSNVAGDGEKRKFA

Compound | Protective % [1] [%] | Number of Alive ([1]; of 5 mice) | IC50 [2] [nM] | MIC [3] [µg/mL] | MIC (S. pyogenes ATCC 8668) [µg/mL] | MIC (S. aureus ATCC 6538P) [µg/mL] | MIC (C. albicans ATCC 10231) [µg/mL] | MIC (E. faecalis ATCC 33011) [µg/mL] | MIC (E. faecium ATCC 6569) [µg/mL] | MIC (S. aureus ATCC 14154) [µg/mL] | MIC [4] [µg/mL] | MIC (B. subtilis ATCC 6633) [µg/mL] | MIC (K. pneumonia ATCC 4352) [µg/mL] | Protective % [5] [%] | Number of Alive ([5]; of 5 mice)
CN[C@H](CC(C)C)C(=O)N[C@H]1C(=O)N[C@@H](CC(N)=O)C(=O)N[C@H]2C(=O)N[C@H]3C(=O)N[C@H](C(=O)N[C@H](C(=O)O)c4cc(O)cc(O)c4-c4cc3ccc4O)[C@H](O)c3ccc(c(Cl)c3)Oc3cc2cc(c3O[C@@H]2O[C@H](CO)[C@@H](O)[C@H](O)[C@H]2O[C@H]2C[C@](C)(N)[C@H](O)[C@H](C)O2)Oc2ccc(cc2Cl)[C@H]1O [Vancomycin, vancomycin, reference compound] | 100 | 5 |  |  |  |  |  |  |  |  |  |  |  |  | 
CC[C@H](C)[C@H](N)C(=O)NS(=O)(=O)OC[C@H]1O[C@@H](CCn2nnc(-c3ccc(C(=O)OCc4ccccc4)cc3)n2)[C@H](O)[C@@H]1O [VI] |  |  | 7.5 | 5 (≈ 7.9 µM) | > 5 | 25 (≈ 39.5 µM) | > 500 | > 500 | 100 (≈ 158 µM) | 50 (≈ 79 µM) | 25 (≈ 39.5 µM) |  |  |  | 
CC[C@H](C)[C@H](N)C(=O)NS(=O)(=O)OC[C@H]1O[C@@H](CCn2nnc(-c3ccc(Oc4ccc([N+](=O)[O-])s4)cc3)n2)[C@H](O)[C@@H]1O [XXXI] |  |  | 1.3 | 5 (≈ 7.79 µM) | 4 (≈ 6.23 µM) | 5 (≈ 7.79 µM) |  | > 500 | 100 (≈ 156 µM) | 10 (≈ 15.6 µM) | 2 (≈ 3.12 µM) |  |  |  | 
CC[C@H](C)[C@H](N)C(=O)NS(=O)(=O)OC[C@H]1O[C@@H](CCn2nnc(-c3ccc(-c4ccccn4)nc3)n2)[C@H](O)[C@@H]1O [XXV] |  |  | 0.5 | 25 (≈ 43.4 µM) |  | 500 (≈ 867 µM) |  | > 500 | > 500 | 100 (≈ 173 µM) | 50 (≈ 86.7 µM) | > 500 | > 500 |  | 
CC[C@H](C)[C@H](N)C(=O)NS(=O)(=O)OC[C@H]1O[C@@H](CCn2nnc(-c3ccc(-c4ccc(F)c(F)c4)cc3)n2)[C@H](O)[C@@H]1O [XXIII] |  |  | 2.9 | 10 (≈ 16.4 µM) |  | 50 (≈ 81.9 µM) | 10 (≈ 16.4 µM) |  | 100 (≈ 164 µM) | 100 (≈ 164 µM) | 25 (≈ 40.9 µM) | 50 (≈ 81.9 µM) | 100 (≈ 164 µM) |  | 
CC[C@H]1OC(=O)[C@H](C)[C@@H](O[C@H]2C[C@@](C)(OC)[C@@H](O)[C@H](C)O2)[C@H](C)[C@@H](O[C@@H]2O[C@H](C)C[C@H](N(C)C)[C@H]2O)[C@](C)(O)C[C@@H](C)C(=O)[C@H](C)[C@@H](O)[C@]1(C)O [Erythromycin, erythromycin, reference compound] |  |  |  |  |  |  |  |  |  |  |  |  |  | 100 | 5
CC[C@H](C)[C@H](N)C(=O)NS(=O)(=O)OC[C@H]1O[C@@H](CCn2nnc(-c3ccc(Oc4nccs4)cc3)n2)[C@H](O)[C@@H]1O [XVII] |  |  | 1 | 25 (≈ 41.8 µM) |  | 100 (≈ 167 µM) | > 500 | > 500 | 50 (≈ 83.7 µM) | 500 (≈ 837 µM) | 50 (≈ 83.7 µM) |  |  |  | 
